Data on 21 compounds can be found in ChEMBL document CHEMBL1201862, “PubChem BioAssay data set” (2004).

SMILES strings stand for the structures. The source made the active and inactive calls.

In data set [1] the target is T1, Heat shock factor protein 1 (Mus musculus, UniProt P38532).
T1 sequence (P38532 whole entry): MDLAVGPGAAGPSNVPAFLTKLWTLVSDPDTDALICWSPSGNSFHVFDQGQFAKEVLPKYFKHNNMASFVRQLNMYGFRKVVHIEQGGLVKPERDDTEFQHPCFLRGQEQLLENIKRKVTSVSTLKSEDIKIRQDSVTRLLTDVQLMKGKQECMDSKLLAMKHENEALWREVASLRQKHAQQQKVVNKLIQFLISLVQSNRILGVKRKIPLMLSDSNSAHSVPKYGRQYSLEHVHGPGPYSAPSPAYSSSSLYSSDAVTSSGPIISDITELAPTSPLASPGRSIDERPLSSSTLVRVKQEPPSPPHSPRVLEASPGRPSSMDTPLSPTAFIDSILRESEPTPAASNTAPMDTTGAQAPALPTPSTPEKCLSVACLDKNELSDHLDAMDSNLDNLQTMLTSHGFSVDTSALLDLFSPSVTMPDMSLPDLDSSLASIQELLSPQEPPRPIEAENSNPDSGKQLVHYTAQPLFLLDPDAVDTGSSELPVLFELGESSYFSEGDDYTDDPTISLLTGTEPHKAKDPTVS
The data set is described as follows: decrease of HSF1-responsive luciferase luminescence – cell-based, NIH3T3, dose retest, confirmation (AID 2382).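 Also: NIH3T3 fibroblasts with HSF1-driven luciferase reporter stressed by proteasome inhibitor MG132; luminescence from HSF1-driven luciferase expression after 8 hours of MG132 stress.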 It counts as functional.

The nature of data set [2]: HEK-293T cell viability reduction – luminescence, B-cell screen hits, cytotoxicity control for BCR NF-kB inhibitor project, dose response (AID 489021).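 Also: HEK-293T cells carrying an NF-kB luciferase reporter; cells exposed to compound for about 14 hours before viability readout.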 It counts as functional, cell-based.
For data set [3], the target named is T2, Cytochrome P450 3A4 (Homo sapiens, UniProt P08684).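 Also: CYP3A4 tested as one member of a cytochrome P450 panel screen.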
A further data set has as its target Cytochrome P450 2C19 (Homo sapiens, UniProt P33261). Description: Cytochrome panel assay with activity outcomes. Panel member name: p450-cyp2c19 Compounds with AC50 equal or less than 10 uM are considered active. It counts as functional. Conditions: read-out: AC50.
Data set [4] addresses T2, Cytochrome P450 3A4. The source holds these as a separate data set.
The test system of the next data set is H4. The data set is described as follows: Luminescence Cell-Based Dose Response HTS to Identify Activators of 5'UTR Stem-Loop Driven Prion Protein mRNA Translation in H4 Neuroglioblastoma Cells. [Related pubchem assays: 1829 (Project Summary), 1814 (Primary HTS)]. The format is functional. Conditions: Homo sapiens.
Data set [5] can be described thus: Luminescence Cell-Based Dose Response HTS to Identify Activators of Luciferase Translation or Activity in H4 […] Cells. [Related pubchem assays: 1829 (Project Summary), 1814 (Primary HTS)]. It counts as functional.
For data set [6], the target named is Induced myeloid leukemia cell differentiation protein Mcl-1 (Homo sapiens, UniProt Q07820). It counts as functional.
For data set [7], the target named is T1, Heat shock factor protein 1. Description: enhancement of HSF1-driven luciferase signal – cell-based, NIH3T3, luminescence, dose retest, confirmation (AID 435004).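 Also: stress induced by proteasome inhibitor MG132 added 30 min after compound; luciferase reporter driven by HSF1 response element in NIH3T3 cells; actives raise luminescence as potentiators of the MG132 stress response.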 The format is functional.
Data set [8] in a line: Luminescence Cell-Based Dose Confirmation HTS to Identify Activators of 5'UTR Stem-Loop Driven Alpha-Synuclein mRNA Translation in H4 Neuroglioblastoma Cells. [Related pubchem assays: 1829 (Project Summary), 1814 (Primary HTS)]. It counts as functional.
For a further data set, the system named is Streptococcus. The data set is described as follows: GAS UMAA2166 growth inhibition – luminescence, BacTiterGlo, counter-screen for streptokinase expression inhibitor project, dose response (AID 1915).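 Also: potency for reduction of bacterial viability or growth.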 It counts as functional, organism-based. In general terms: A counterscreen serves to expose hits that act by an unwanted route or on another target.
A further data set has as its target T3, Streptokinase A (Streptococcus pyogenes serotype M1, UniProt P10520).
T3 sequence (P10520 whole entry): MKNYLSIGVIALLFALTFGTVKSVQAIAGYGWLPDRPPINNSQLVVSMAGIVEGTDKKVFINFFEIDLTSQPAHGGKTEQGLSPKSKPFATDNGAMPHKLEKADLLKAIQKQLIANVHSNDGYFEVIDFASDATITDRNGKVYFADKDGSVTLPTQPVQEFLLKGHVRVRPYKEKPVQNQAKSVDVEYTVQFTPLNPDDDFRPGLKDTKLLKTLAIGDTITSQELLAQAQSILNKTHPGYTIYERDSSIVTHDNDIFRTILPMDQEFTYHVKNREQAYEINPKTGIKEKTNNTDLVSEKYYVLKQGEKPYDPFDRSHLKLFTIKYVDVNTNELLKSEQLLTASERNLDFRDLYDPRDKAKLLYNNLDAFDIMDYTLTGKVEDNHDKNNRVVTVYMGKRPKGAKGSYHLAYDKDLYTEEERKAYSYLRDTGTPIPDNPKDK
The data set is described as follows: viability-normalized secreted streptokinase activity reduction – plasminogen activation absorbance, OD405, dose response (AID 1914).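 Also: secreted streptokinase activity via plasminogen activation per viability signal from cell pellet.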 The format is functional, Streptococcus pyogenes M1 GAS.

Data set [9] deals with Streptococcus sp. 'group A'. The data set is described as follows: Streptococcus pyogenes SK(-)GAS viability under kanamycin – luminescence, BacTiterGlo, confirmation, counter-screen for streptokinase expression inhibitor project, dose response (AID 1900). It counts as functional, organism-based.
The next data set has as its target Cytochrome P450 2C9 (Homo sapiens, UniProt P11712).
Data set [10] has as its target FAD-linked sulfhydryl oxidase ALR (Homo sapiens, UniProt P55789). The data set is described as follows: ALR-catalysed DTT oxidation blockers – biochemical, H2O2 detection, luminescence, cherry-pick, dose response (AID 493248).
Data set [11] is described as follows: Vero E6 cell cytotoxicity, dose response, cytotoxicity control for non-replicating M. tuberculosis project, secondary assay (AID 492998). It counts as functional, VeroE6. The note with it: Vero C1008.
Data set [12] can be described thus: microbe, parasite or virus in culture. It counts as functional. Conditions: Mycobacterium tuberculosis.
The nature of a further data set: cells. It counts as functional.
The nature of data set [13]: THP-1 cell cytotoxicity, dose response, cytotoxicity control for non-replicating M. tuberculosis project (AID 489025). It counts as functional.

Broadly, the EC50 is the midpoint of the concentration-response curve. In general, IC50 refers to the concentration at which inhibition is half-maximal. By AC50 is commonly meant the midpoint of the concentration-response curve, whichever way the signal moves.

T2 sequence (P08684 whole entry): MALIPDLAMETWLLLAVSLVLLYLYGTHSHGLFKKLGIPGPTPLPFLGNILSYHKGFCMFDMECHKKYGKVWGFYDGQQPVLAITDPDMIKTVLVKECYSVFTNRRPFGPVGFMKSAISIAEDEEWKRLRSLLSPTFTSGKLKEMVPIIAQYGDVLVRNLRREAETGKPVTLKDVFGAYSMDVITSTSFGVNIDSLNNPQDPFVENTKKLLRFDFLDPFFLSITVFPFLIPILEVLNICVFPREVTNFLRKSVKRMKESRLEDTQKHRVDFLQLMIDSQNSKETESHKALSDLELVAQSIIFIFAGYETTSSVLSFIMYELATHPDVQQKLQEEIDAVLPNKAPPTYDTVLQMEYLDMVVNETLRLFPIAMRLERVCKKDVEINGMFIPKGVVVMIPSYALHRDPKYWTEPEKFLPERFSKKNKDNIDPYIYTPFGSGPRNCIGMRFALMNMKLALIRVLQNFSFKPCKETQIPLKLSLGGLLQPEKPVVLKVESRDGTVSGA
Sequence of Cytochrome P450 2C19 (P33261 whole entry): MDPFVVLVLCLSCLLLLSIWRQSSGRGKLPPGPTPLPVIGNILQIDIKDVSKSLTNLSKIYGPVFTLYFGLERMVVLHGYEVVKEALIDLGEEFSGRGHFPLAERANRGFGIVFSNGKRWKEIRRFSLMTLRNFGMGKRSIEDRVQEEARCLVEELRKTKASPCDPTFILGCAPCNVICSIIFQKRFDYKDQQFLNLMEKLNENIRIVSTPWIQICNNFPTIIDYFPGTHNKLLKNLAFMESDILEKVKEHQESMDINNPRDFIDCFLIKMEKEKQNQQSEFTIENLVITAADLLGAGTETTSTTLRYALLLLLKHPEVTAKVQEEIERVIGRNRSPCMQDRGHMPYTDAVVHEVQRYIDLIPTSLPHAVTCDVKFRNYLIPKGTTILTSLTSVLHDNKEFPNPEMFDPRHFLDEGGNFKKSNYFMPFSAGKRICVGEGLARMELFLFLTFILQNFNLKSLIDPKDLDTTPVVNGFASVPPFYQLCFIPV
Sequence of Induced myeloid leukemia cell differentiation protein Mcl-1 (Q07820 whole entry): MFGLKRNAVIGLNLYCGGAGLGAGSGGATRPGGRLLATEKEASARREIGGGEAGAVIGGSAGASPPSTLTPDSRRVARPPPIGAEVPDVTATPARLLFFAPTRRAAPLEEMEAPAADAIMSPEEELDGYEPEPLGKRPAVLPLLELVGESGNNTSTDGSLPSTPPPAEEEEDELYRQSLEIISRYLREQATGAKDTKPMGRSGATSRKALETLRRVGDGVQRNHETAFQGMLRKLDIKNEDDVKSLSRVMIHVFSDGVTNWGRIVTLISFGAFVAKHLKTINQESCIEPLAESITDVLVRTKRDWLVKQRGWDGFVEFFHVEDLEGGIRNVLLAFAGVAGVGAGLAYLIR
Sequence of FAD-linked sulfhydryl oxidase ALR (P55789 whole entry): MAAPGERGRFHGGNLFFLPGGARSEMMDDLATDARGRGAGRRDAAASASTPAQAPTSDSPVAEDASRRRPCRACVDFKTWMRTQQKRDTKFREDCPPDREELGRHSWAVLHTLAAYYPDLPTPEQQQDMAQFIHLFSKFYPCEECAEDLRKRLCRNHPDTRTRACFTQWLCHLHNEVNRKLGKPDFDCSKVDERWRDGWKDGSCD
Sequence of Cytochrome P450 2C9 (P11712 whole entry): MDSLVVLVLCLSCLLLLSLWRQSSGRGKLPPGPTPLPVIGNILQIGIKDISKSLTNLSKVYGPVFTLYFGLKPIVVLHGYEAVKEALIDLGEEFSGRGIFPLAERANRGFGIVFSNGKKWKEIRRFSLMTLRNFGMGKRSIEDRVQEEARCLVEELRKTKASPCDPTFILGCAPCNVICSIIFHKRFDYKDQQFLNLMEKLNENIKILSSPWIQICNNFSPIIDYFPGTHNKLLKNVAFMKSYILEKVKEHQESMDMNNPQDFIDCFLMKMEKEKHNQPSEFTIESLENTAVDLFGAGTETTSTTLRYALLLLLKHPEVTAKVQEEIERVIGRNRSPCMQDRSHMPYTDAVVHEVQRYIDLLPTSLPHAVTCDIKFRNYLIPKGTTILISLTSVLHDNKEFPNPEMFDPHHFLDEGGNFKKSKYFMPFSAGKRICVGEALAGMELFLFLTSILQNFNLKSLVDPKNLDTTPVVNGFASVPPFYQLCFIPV

In the case of `O=C(O)CCN1C(=O)/C(=C/c2nc3ccccc3[nH]2)SC1=S`, in [1], the EC50 is 7.78 µM (active). Besides, in [2], the IC50 was > 80 µM (inactive).
With `COc1ccc(NC(=O)N2CCC3(CC2)CCN(C(=O)c2cccc(F)c2)CC3)cc1`, the AC50 result on Cytochrome P450 3A4 [3] is given as “inconclusive”.
`Cc1cc(N2CCOCC2)nc2ccc(Cc3ccc4nc(N5CCOCC5)cc(C)c4c3)cc12`: the concentration at half-maximal activity (AC50) entry at Cytochrome P450 3A4 [3] is on record as “inconclusive”.
On to `O=C(NCCCN1CCC(Cc2ccccc2)CC1)C1CCN(S(=O)(=O)N2CCOCC2)CC1`, for which the values for the concentration at half-maximal activity (AC50) entry at Cytochrome P450 3A4 [3] and on Cytochrome P450 2C19 were “inconclusive” and 25.1 µM (inconclusive), respectively.
The corresponding values for `CCCC(=O)N1CCN(c2ccc(NC(=O)c3ccc(OCC)c([N+](=O)[O-])c3)cc2)CC1` are “inconclusive” and 28.2 µM (inconclusive).
As for `CCN(CC(=O)Nc1c(F)cccc1F)C(=O)c1cc(S(=O)(=O)N2CCOCC2)ccc1N1CCCC1`, the IC50 in data set [2] was > 80 µM (inactive).
For `C[C@H](O/N=C1/[C@H]2O[C@@H]2[C@@H](O)[C@H]2[C@H]1CCn1c(=O)n(-c3ccccc3)c(=O)n12)c1cn([C@H](CO)Cc2ccccc2)nn1`, the AC50 at Cytochrome P450 3A4 [4] and at Cytochrome P450 3A4 [3] was 3.98 µM (inconclusive) each time.
`Cc1ccc2nc(-c3ccc(NC(=O)CN4CCN(c5ccccn5)CC4)cc3)sc2c1`: the EC50 in the data set on H4 was 44.3 µM (active); in data set [5], 9.19 µM (active).
As for `Brc1ccc(C2Nc3cccc4cccc(c34)N2)s1`, in data set [6], the IC50 is 9.46 µM (active).
`CCOc1ccccc1CNCCN1CCOCC1.Cl`: the EC50 in data set [7] was > 260 µM (inactive). In addition, the concentration at half-maximal activity (AC50) result on Cytochrome P450 3A4 [3] is listed as “inconclusive”.
Consider `Nc1nc(CSc2ncccn2)nc(Nc2ccccc2)n1`, for which the concentration giving a half-maximal response (EC50) was 0.504 µM (active) in data set [5] and 3.07 µM (active) in data set [8].
For `COc1ccc(/C=C/c2ccccc2)cc1[C@H]1[C@H]2C=CC[C@@H](C)[C@@H]2C(=O)N1Cc1ccccc1`, the IC50 in data set [2] was > 80 µM (inactive).
For `CC(=O)Oc1ccc2occ(-c3ccccc3)c2c1`, the figures for the half-maximal effective concentration (EC50) (in the data set with H4; in data set [5]; in data set [8]) were 14 µM (active), 16.7 µM (active) and 13.8 µM (active), respectively.
`O=C(COc1ccccc1Cl)c1ccc2c(c1)CCCC2`: the EC50 in the data set on H4 was 10 µM (active); in data set [5], 16.7 µM (active).
For the compound `CCOC(=O)C(=O)N(Nc1ccc(C)cc1)c1ccc(C)cc1`, the concentration giving a half-maximal response (EC50) in data set [5] is 82.6 µM (active); in data set [8] it was 7.04 µM (active).
With `CC1CCN(c2ccc(-c3ccc(NC(=O)c4ccco4)cc3)nn2)CC1`, the EC50 in the data set on Streptococcus is > 150 µM (not active); in the data set with H4 it was 120 µM (active); on Streptokinase A, > 150 µM (not active); in data set [5], > 120 µM (not active); in [8], 18.6 µM (active); in [9], > 150 µM (not active).
Take `COc1ccc(C2=NCc3nnc(C)n3-c3ccc(Cl)cc32)cc1Cl`: in [2], the IC50 was > 80 µM (inactive).
In the case of `Cn1c(=O)c(-c2ccc(Cl)cc2)nc2cnc(N3CCOCC3)nc21`, the AC50 result on Cytochrome P450 3A4 [3] and at Cytochrome P450 2C9 was “inconclusive” in each case.
Turning to `COc1ccc(C(=O)N/N=C/c2sc(N3CCOCC3)nc2-c2ccccc2)cc1OC`, the IC50 in data set [2] is 63.1 µM (inactive).
Regarding `COc1cc(/C=N/NC(=O)c2cc(-c3ccco3)nc3ccccc23)cc(OC)c1O`, in data set [6], the IC50 is 8.35 µM (active). In addition, in [10], the AC50 was 0.13 µM (active).
Consider `Cc1ccc2nc(N/C(N)=N/C(=O)NC3CCCCC3)nc(C)c2c1`, for which the figures for the concentration giving a half-maximal response (EC50) (in the data set on Streptococcus; in [9]) were > 150 µM (not active) and 5.35 µM (active), respectively. Besides, the CC50 was 18.5 µM (active) in [11], 21.1 µM (active) in [12] and 23.2 µM (active) in data set [13]. In addition, the IC50 in the data set “cells” is 3.74 µM (active).
